Like-named read-outs stand apart in the source and are kept apart here.
What was measured:
HDAC7 = target: T1, HDAC7 (Homo sapiens, UniProt Q8WUI4); test: HDAC biochemical activity measurement (fluorescent substrate deacetylation);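 also: fluorogenic deacetylation assay using acetyl-lysine substrate at 20 µM, enzyme and compound incubated 30 min at 37 °C, then developer added, fluorescence read at 360/460 nm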; conditions: HDAC7; 37° C. 30 minutes
T1 sequence (Q8WUI4 1-952): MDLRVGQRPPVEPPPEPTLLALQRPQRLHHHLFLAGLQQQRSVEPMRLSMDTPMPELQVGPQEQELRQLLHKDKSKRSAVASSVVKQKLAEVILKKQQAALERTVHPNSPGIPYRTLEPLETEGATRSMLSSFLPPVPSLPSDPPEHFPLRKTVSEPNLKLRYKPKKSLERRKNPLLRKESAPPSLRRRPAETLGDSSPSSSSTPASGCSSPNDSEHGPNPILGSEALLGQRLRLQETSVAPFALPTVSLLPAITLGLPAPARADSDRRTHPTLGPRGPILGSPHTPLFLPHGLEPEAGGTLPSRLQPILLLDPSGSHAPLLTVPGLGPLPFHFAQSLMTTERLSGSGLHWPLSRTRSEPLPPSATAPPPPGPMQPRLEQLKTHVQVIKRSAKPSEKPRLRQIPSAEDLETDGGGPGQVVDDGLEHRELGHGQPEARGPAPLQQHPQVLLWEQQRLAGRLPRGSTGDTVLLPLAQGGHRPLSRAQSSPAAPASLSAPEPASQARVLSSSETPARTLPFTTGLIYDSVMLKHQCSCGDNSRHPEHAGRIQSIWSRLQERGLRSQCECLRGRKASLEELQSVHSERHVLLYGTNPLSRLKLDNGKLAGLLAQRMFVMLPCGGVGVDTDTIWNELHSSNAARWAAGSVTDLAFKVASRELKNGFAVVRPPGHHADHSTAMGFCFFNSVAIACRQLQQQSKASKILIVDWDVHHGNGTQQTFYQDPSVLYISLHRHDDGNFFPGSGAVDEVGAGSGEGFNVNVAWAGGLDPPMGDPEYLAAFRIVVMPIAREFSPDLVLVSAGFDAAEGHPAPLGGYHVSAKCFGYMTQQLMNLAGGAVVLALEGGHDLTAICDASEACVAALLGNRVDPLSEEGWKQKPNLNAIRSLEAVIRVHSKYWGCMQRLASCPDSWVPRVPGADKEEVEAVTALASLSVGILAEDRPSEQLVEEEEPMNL

[1] = tested on: H1975 (non-small cell lung adenocarcinoma); test: MTT cancer cell growth inhibition; assay type: cell-based; conditions: Homo sapiens, NCI-H1975, 72 h, MTT, 72 hours incubation, H1975 cells; read-out: GI50 H1975
Outline: (§1)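 Cells grown in DMEM or RPMI 1640 with 10% FBS were seeded at 1500/well and left overnight at 37° C., 5% CO2. Compounds at final 10^−5 to 10^−10 M were added in triplicate for 72 h. MTT was then added for 4 h, formazan dissolved in DMSO, and absorbance read at 570 nm to derive GI50.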

[2] = tested on: lncap (prostate cancer cells); test: MTT cancer cell growth inhibition; assay type: cell-based; conditions: Homo sapiens, LNCaP, 72 h, MTT, 72 hours incubation, read-out: GI50 lnca
Outline: as §1

[3] = tested on: KBM5-T315I (human chronic myelogenous leukemia); test: MTT cancer cell growth inhibition; assay type: cell-based; conditions: Homo sapiens, 72 h, MTT, 72 hours incubation, KBM5-T315I cells; read-out: GI50 KBM5-T315I
Outline: as §1

[4] = tested on: K562 (human leukemia cells); test: MTT cancer cell growth inhibition; assay type: cell-based; conditions: Homo sapiens, K562, 72 h, MTT, 72 hours incubation, K562 cells; read-out: GI50 K562
Outline: as §1

[5] = tested on: KBM-5 (human chronic myelogenous leukemia); test: MTT cancer cell growth inhibition; assay type: cell-based; conditions: Homo sapiens, KBM5, 72 h, MTT, 72 hours incubation, KBM-5 cells; read-out: GI50 KBM-5
Outline: as §1

HDAC2 = HDAC2 (Homo sapiens, UniProt Q92769); test: HDAC biochemical activity measurement (fluorescent substrate deacetylation);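 also: HDAC2 enzyme with an acetyl-lysine fluorescent substrate, then developer added, fluorescence read at excitation 360 nm and emission 460 nm, inhibition measured across several compound concentrations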; conditions: 37° C. 30 minutes
Sequence of HDAC2 (Q92769 whole entry, species assumed): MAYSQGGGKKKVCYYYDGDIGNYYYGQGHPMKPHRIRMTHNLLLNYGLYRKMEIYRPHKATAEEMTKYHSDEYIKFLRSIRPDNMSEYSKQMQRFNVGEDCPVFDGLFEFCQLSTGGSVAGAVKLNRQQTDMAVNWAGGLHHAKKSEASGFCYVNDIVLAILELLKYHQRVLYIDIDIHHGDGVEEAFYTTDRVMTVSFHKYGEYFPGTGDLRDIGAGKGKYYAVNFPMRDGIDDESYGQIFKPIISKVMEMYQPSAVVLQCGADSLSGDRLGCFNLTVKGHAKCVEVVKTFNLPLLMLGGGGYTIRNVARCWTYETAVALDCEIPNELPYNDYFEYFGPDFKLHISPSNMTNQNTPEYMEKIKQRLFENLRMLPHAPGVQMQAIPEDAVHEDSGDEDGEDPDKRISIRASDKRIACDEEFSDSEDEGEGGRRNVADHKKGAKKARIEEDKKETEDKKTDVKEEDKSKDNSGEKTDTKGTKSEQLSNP
Protocol: (§2) The chemical activity of the compound is determined according to the degree of deacetylation inhibition of the HDAC enzyme. This experiment measured the degree of deacetylation related to tumor proliferation and metastasis of HDAC1, HDAC2, HDAC3, HDAC8, HDAC11 five subtypes HDAC enzymes. After the substrate containing an acetylated lysine side chain and HDAC enzyme are labeled with a fluorescent label, the fluorescent substrate is de acetyl. The fluorescent labeled substrate is cleaved by the enzyme, and the fluorescent substance is released, which generates 460 nm emission light under the excitation of 360 nm light.
(§3) HDAC substrate was diluted with reaction buffer to 200M (reaction concentration of 20M), the HDAC enzyme was diluted to the appropriate concentration, then added different concentrations of the test compounds and acted at 37° C. 30 minutes, and then added the same volume of 2-times concentration substrate developing solution (developer), incubated at room temperature for 15 minutes.

HDAC3 = HDAC3 (Homo sapiens, UniProt O15379); test: as above;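 also: fluorogenic acetyl-lysine substrate (20 µM) deacetylated by HDAC3, then developer added for 15 min at room temperature, release of fluorophore read at excitation 360 nm, emission 460 nm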
Sequence of HDAC3 (O15379 whole entry, species assumed): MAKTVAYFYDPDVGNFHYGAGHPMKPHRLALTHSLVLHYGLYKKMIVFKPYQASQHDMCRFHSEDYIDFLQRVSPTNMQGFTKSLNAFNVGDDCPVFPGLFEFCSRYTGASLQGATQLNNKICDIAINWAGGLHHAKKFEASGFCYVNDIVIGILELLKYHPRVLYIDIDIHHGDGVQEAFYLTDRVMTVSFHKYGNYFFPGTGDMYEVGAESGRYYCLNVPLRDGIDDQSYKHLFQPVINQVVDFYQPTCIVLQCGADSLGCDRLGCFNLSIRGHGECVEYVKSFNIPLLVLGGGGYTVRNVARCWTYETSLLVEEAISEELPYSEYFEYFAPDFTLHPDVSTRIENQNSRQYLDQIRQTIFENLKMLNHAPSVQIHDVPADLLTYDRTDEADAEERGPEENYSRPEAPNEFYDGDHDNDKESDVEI
Sequence of HDAC3 (Q9Y618 395-489 partner limits assumed, species assumed): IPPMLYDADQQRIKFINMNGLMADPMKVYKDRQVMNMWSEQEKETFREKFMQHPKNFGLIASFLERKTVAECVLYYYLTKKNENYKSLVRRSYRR
Protocol: as §2, §3

[6] = read-out: IC50 HDAC3, HDAC3, 37° C. 30 minutes

| SMILES | IC50 HDAC7 (HDAC7) | GI50 [1] [nM] | GI50 ([2]; lncap cells) [nM] | GI50 [3] [nM] | GI50 [4] [nM] | GI50 [5] [nM] | IC50 (HDAC2) [nM] | IC50 (HDAC3) [nM] | GI50 [2] [nM] | IC50 (HDAC3; [6]) [nM] |
| --- | --- | --- | --- | --- | --- | --- | --- | --- | --- | --- |
| C/C=C1\NC(=O)c2cc(SC)cc(n2)CNC(=O)C[C@@H](/C=C/CCSC(C)=O)OC(=O)[C@H](CCCCN)NC1=O [Compound 193] | no activity | 11 | 80 | 41 | 35 | 31 | 25 | 39 | – | – |
| C/C=C1\NC(=O)c2cccc(n2)CNC(=O)C[C@@H](/C=C/CCSC(C)=O)OC(=O)[C@H](Cc2cccc3ccccc23)NC1=O [Compound 17] | no activity | 42 | – | 28 | 32 | 81 | 61 | – | 530 | 69 |
| C/C=C1\NC(=O)c2cccc(n2)CNC(=O)C[C@@H](/C=C/CCS)OC(=O)[C@@H](C)NC1=O [Compound 145] | no activity | 31 | – | 31 | 32 | 8 | 29 | 26 | 40 | – |
| C/C=C1\NC(=O)c2nc(ccc2SCCC)CNC(=O)C[C@@H](/C=C/CCSC(=O)CCCCCCC)OC(=O)[C@H](CC)NC1=O [Compound 174] | no activity | 57 | 30 | 96 | 13 | 15 | 32 | 26 | – | – |
| C/C=C1\NC(=O)c2cccc(n2)CNC(=O)C[C@@H](/C=C/CCSC(C)=O)OC(=O)[C@H](CC)NC1=O [Compound 10] | no activity | 24 | – | 24 | 73 | 61 | 67 | 41 | – | – |
| C/C=C1\NC(=O)c2cccc(n2)CCNC(=O)C[C@@H](/C=C/CCSC(C)=O)OC(=O)[C@H](C(C)C)NC1=O [Example 26] | no activity | 31 | – | 31 | 17 | – | 64 | 46 | 9000 | – |
| C/C=C1\NC(=O)c2cccc(n2)CNC(=O)C[C@@H](/C=C/CCSC(=O)CCC)OC(=O)[C@H](C(C)C)NC1=O [Compound 5] | no activity | 23 | – | 33 | 32 | 72 | 53 | – | – | 49 |

The remaining lines, values ahead:

| IC50 HDAC7 (HDAC7) | GI50 [1] [nM] | GI50 ([2]; lncap cells) [nM] | GI50 [3] [nM] | GI50 [4] [nM] | GI50 [5] [nM] | IC50 (HDAC2) [nM] | IC50 (HDAC3) [nM] | GI50 [2] [nM] | IC50 (HDAC3; [6]) [nM] | SMILES |
| --- | --- | --- | --- | --- | --- | --- | --- | --- | --- | --- |
| no activity | 44 | 50 | 47 | 37 | 51 | 52 | 16 | – | – | C/C=C1\NC(=O)c2cc(SC)cc(n2)CNC(=O)C[C@@H](/C=C/CCSC=O)OC(=O)[C@H](C(C)C)NC1=O [Compound 169] |
| no activity | 31 | – | 22 | 61 | 74 | 251 | – | – | 152 | C/C=C1\NC(=O)c2cccc(n2)CNC(=O)C[C@@H](/C=C/CCSC(=O)CCCC)OC(=O)[C@H](C(C)C)NC1=O [Compound 4] |
| no activity | 41 | – | 31 | 24 | 72 | 54 | – | – | 52 | C/C=C1\NC(=O)c2cccc(n2)CNC(=O)C[C@@H](/C=C/CCSC(C)=O)OC(=O)[C@H](C)NC1=O [Compound 12] |
| no activity | 13 | – | 41 | 33 | 61 | 59 | – | – | 61 | C/C=C1\NC(=O)c2cccc(n2)CNC(=O)C[C@@H](/C=C/CCSC(=O)CC)OC(=O)[C@H](C(C)C)NC1=O [Compound 6] |
| no activity | 38 | – | 63 | 53 | 51 | 162 | 51 | – | – | C/C=C1\NC(=O)c2cccc(n2)CNC(=O)C[C@@H](/C=C/CCSC=O)OC(=O)[C@H](C(C)C)NC1=O [Compound 8] |

Reference: patent US10065990B2, “Cyclic peptide compound, and preparation method, pharmaceutical composition and use thereof” (HANGZHOU GUANYU BIO-MEDICAL CO., LTD, priority 2013, dated 2018)
